Laboratory results: US10376520B2, “Methods for the treatment of cardiovascular disorders” (Galapagos NV, priority 2015, dated 2019)

Tested on: RA patients
Assay: Atherogenic index, Study 1 (RA patients, add-on to MTX)
Assay type: in vivo, human
Experimental: As used herein, the term ‘atherogenic index’ refers to
Double-blind, placebo-controlled add on study in subjects with moderately to severely active RA who have an inadequate response to methotrexate (MTX) (oral or parenteral).
Compound 1 (dosed as a [Compound 1:HCl:3H2O]) is dosed for twelve weeks once daily (q.d.) (50 mg, 100 mg or 200 mg) or twice daily (b.i.d.) (25 mg, 50 mg or 100 mg); or placebo.
At Week 12, the subjects on placebo who have not achieved 20% improvement in swollen joint count (SJC66) and tender joint count (TJC68) are re-randomized automatically to receive Compound 1 (dosed as a [Compound 1:HCl:3H2O]) either at 100 mg q.d. or 50 mg b.i.d. doses in a blinded fashion; subjects on 50 mg q.d. who have not achieved 20% improvement in SJC66 and TJC68 will be assigned to 100 mg q.d. and subjects on 25 mg b.i.d. that have not achieved a 20% improvement in SJC66 and TJC68 will be assigned to 50 mg b.i.d. Subjects who switch treatment at week 12 are handled as if they discontinued at week 12 for the purpose of statistical analysis, whereas subjects in the other groups will maintain their randomized treatment until Week 24.
The atherogenic index has been identified to be a good predictor of cardiovascular disorders risks and is calculated as follows: […]

[1] = 25 mg b.i.d continued over 24 weeks, week 1
[2] = 25 mg b.i.d continued over 24 weeks, week 2
[3] = 25 mg b.i.d continued over 24 weeks, week 4
[4] = 25 mg b.i.d continued over 24 weeks, week 8
[5] = 25 mg b.i.d continued over 24 weeks, week 12
[6] = 25 mg b.i.d continued over 24 weeks, week 16
[7] = 25 mg b.i.d continued over 24 weeks, week 20
[8] = 25 mg b.i.d continued over 24 weeks, week 24
[9] = 50 mg b.i.d. continued over 24 weeks, week 1
[10] = 50 mg b.i.d. continued over 24 weeks, week 2
[11] = 50 mg b.i.d. continued over 24 weeks, week 4
[12] = 50 mg b.i.d. continued over 24 weeks, week 8
[13] = 50 mg b.i.d. continued over 24 weeks, week 12
[14] = 50 mg b.i.d. continued over 24 weeks, week 16
[15] = 50 mg b.i.d. continued over 24 weeks, week 20
[16] = 50 mg b.i.d. continued over 24 weeks, week 24
[17] = 50 mg q.d. continued over 24 weeks, week 1
[18] = 50 mg q.d. continued over 24 weeks, week 2
[19] = 50 mg q.d. continued over 24 weeks, week 4
[20] = 50 mg q.d. continued over 24 weeks, week 8
[21] = 50 mg q.d. continued over 24 weeks, week 12
[22] = 50 mg q.d. continued over 24 weeks, week 16
[23] = 50 mg q.d. continued over 24 weeks, week 20
[24] = 50 mg q.d. continued over 24 weeks, week 24

Compound: O=C(Nc1nc2cccc(-c3ccc(CN4CCS(=O)(=O)CC4)cc3)n2n1)C1CC1 [Compound 1, cyclopropanecarboxylic acid {5-[4-(1,1-dioxo-thiomorpholin-4-ylmethyl)-phenyl]-[1,2,4]triazolo[1,5-a]pyridin-2yl}-amide]
- Atherogenic index Mean CFB - 24 weeks results [1]: 0.08 mmol/L
- Atherogenic index Mean percentage CFB - 24 weeks results [1]: 2.78%
- Atherogenic index Median CFB - 24 weeks results [1]: 0.10 mmol/L
- Atherogenic index Mean CFB - 24 weeks results [2]: -0.01 mmol/L
- Atherogenic index Mean percentage CFB - 24 weeks results [2]: 0.75%
- Atherogenic index Median CFB - 24 weeks results [2]: 0.00 mmol/L
- Atherogenic index Mean CFB - 24 weeks results [3]: -0.02 mmol/L
- Atherogenic index Mean percentage CFB - 24 weeks results [3]: 0.43%
- Atherogenic index Median CFB - 24 weeks results [3]: 0.00 mmol/L
- Atherogenic index Mean CFB - 24 weeks results [4]: -0.05 mmol/L
- Atherogenic index Mean percentage CFB - 24 weeks results [4]: −0.86%
- Atherogenic index Median CFB - 24 weeks results [4]: -0.10 mmol/L
- Atherogenic index Mean CFB - 24 weeks results [5]: 0.05 mmol/L
- Atherogenic index Mean percentage CFB - 24 weeks results [5]: 2.68%
- Atherogenic index Median CFB - 24 weeks results [5]: 0.00 mmol/L
- Atherogenic index Mean CFB - 24 weeks results [6]: -0.03 mmol/L
- Atherogenic index Mean percentage CFB - 24 weeks results [6]: 0.32%
- Atherogenic index Median CFB - 24 weeks results [6]: 0.00 mmol/L
- Atherogenic index Mean CFB - 24 weeks results [7]: 0.09 mmol/L
- Atherogenic index Mean percentage CFB - 24 weeks results [7]: 4.42%
- Atherogenic index Median CFB - 24 weeks results [7]: 0.00 mmol/L
- Atherogenic index Mean CFB - 24 weeks results [8]: 0.02 mmol/L
- Atherogenic index Mean percentage CFB - 24 weeks results [8]: 2.01%
- Atherogenic index Median CFB - 24 weeks results [8]: 0.00 mmol/L
- Atherogenic index Mean CFB - 24 weeks results [9]: -0.06 mmol/L
- Atherogenic index Mean percentage CFB - 24 weeks results [9]: −0.30%
- Atherogenic index Median CFB - 24 weeks results [9]: 0.00 mmol/L
- Atherogenic index Mean CFB - 24 weeks results [10]: -0.21 mmol/L
- Atherogenic index Mean percentage CFB - 24 weeks results [10]: −4.55%
- Atherogenic index Median CFB - 24 weeks results [10]: -0.10 mmol/L
- Atherogenic index Mean CFB - 24 weeks results [11]: -0.14 mmol/L
- Atherogenic index Mean percentage CFB - 24 weeks results [11]: −2.75%
- Atherogenic index Median CFB - 24 weeks results [11]: -0.10 mmol/L
- Atherogenic index Mean CFB - 24 weeks results [12]: -0.18 mmol/L
- Atherogenic index Mean percentage CFB - 24 weeks results [12]: −3.44%
- Atherogenic index Median CFB - 24 weeks results [12]: -0.10 mmol/L
- Atherogenic index Mean CFB - 24 weeks results [13]: -0.07 mmol/L
- Atherogenic index Mean percentage CFB - 24 weeks results [13]: −0.87%
- Atherogenic index Median CFB - 24 weeks results [13]: 0.00 mmol/L
- Atherogenic index Mean CFB - 24 weeks results [14]: -0.13 mmol/L
- Atherogenic index Mean percentage CFB - 24 weeks results [14]: −2.57%
- Atherogenic index Median CFB - 24 weeks results [14]: -0.10 mmol/L
- Atherogenic index Mean CFB - 24 weeks results [15]: -0.11 mmol/L
- Atherogenic index Median CFB - 24 weeks results [15]: -0.10 mmol/L
- Atherogenic index Mean CFB - 24 weeks results [16]: -0.04 mmol/L
- Atherogenic index Mean percentage CFB - 24 weeks results [16]: 0.23%
- Atherogenic index Median CFB - 24 weeks results [16]: 0.00 mmol/L
- Atherogenic index Mean CFB - 24 weeks results [17]: -0.02 mmol/L
- Atherogenic index Mean percentage CFB - 24 weeks results [17]: −0.40%
- Atherogenic index Median CFB - 24 weeks results [17]: -0.10 mmol/L
- Atherogenic index Mean CFB - 24 weeks results [18]: -0.15 mmol/L
- Atherogenic index Mean percentage CFB - 24 weeks results [18]: −3.84%
- Atherogenic index Median CFB - 24 weeks results [18]: -0.20 mmol/L
- Atherogenic index Mean CFB - 24 weeks results [19]: -0.11 mmol/L
- Atherogenic index Mean percentage CFB - 24 weeks results [19]: −2.94%
- Atherogenic index Median CFB - 24 weeks results [19]: -0.10 mmol/L
- Atherogenic index Mean CFB - 24 weeks results [20]: 0.00 mmol/L
- Atherogenic index Mean percentage CFB - 24 weeks results [20]: 0.36%
- Atherogenic index Median CFB - 24 weeks results [20]: -0.10 mmol/L
- Atherogenic index Mean CFB - 24 weeks results [21]: 0.01 mmol/L
- Atherogenic index Mean percentage CFB - 24 weeks results [21]: 1.11%
- Atherogenic index Median CFB - 24 weeks results [21]: 0.00 mmol/L
- Atherogenic index Mean CFB - 24 weeks results [22]: -0.01 mmol/L
- Atherogenic index Mean percentage CFB - 24 weeks results [22]: 0.09%
- Atherogenic index Median CFB - 24 weeks results [22]: 0.00 mmol/L
- Atherogenic index Mean CFB - 24 weeks results [23]: -0.08 mmol/L
- Atherogenic index Mean percentage CFB - 24 weeks results [23]: −1.32%
- Atherogenic index Median CFB - 24 weeks results [23]: -0.10 mmol/L
- Atherogenic index Mean CFB - 24 weeks results [24]: -0.12 mmol/L
- Atherogenic index Mean percentage CFB - 24 weeks results [24]: −3.08%
- Atherogenic index Median CFB - 24 weeks results [24]: -0.10 mmol/L
- Atherogenic index Mean CFB (50 mg q.d., week 1): -0.02 mmol/L
- Atherogenic index Mean percentage CFB - 12 weeks results (50 mg q.d., week 1): 0%
